In patent EP4813991A1 (iLeadBMS Co., Ltd., priority 2023, dated 2025):

Columns and labels:
Type in all cases: cell-based
[1] = system: Gemcitabine resistant-MIA-PaCa2 cells; experiment: Pancreatic cancer cell proliferation inhibitory activity, Gemcitabine resistant-MIA-PaCa2; settings: 72 hours, Cell Counting Kit-8, relative IC50
Experimental: (§1) Experiments were performed using three types of pancreatic cancer cell lines to measure the cell proliferation inhibitory ability of the compounds of the present invention. AsPC-1, MIA-PaCa2-Control, and Gemcitabine resistant-MIA-PaCa2 cells were dispensed into a 96-well plate at 100 uL of cell suspension per well using DMEM medium containing 10 % FBS and 1 % PS, followed by incubation in a cell incubator at 37 °C and 5 % CO2. The next day, the compound of Example 8 dissolved and diluted in DMSO across 10 concentration ranges and a DMSO control group were treated on the cells for 72 hours. After completion of the compound treatment, 10 µL of Cell Counting Kit-8 (Dojindo) reagent was added to each well of the 96-well plate, followed by incubation for 2 hours. […] were measured after inserting the 96-well plate into an Envision plate reader […]. Relative IC50 values were calculated by fitting a dose-response curve using Graphpad PRISM software.
(§2) The pancreatic cancer cell proliferation inhibitory activities of the Example compounds measured by the method described above were evaluated according to the following criteria, and the results are presented in Table 18.

NCI-N87 = experiment: Gastric cancer cell proliferation inhibitory activity (Cell Counting Kit-8), NCI-N87; settings: Homo sapiens, 72 hours, Cell Counting Kit-8, relative IC50
Experimental: (§3) Experiments were performed using six types of gastric cancer cell lines to measure the cell proliferation inhibitory ability of each Example compound. NCI-N87, SNU601, KATO-III, MKN1, and AGS cells were dispensed into a 96-well plate at 100 µL of cell suspension per well using RPMI1640 medium containing 10 % FBS and 1 % PS, followed by incubation in a cell incubator at 37 °C and 5 % CO2. HS746T cells were dispensed into a 96-well plate at 100 µL of cell suspension per well using DMEM medium containing 10 % FBS and 1 % PS, followed by incubation in a cell incubator at 37 °C and 5 % CO2. The next day, each Example compound dissolved and diluted in DMSO across 10 concentration ranges and a DMSO control group were treated on the cells for 72 hours. After completion of the compound treatment, 10 µL of Cell Counting Kit-8 (Dojindo) reagent was added to each well of the 96-well plate, followed by incubation for 2 hours. […] were measured after inserting the 96-well plate into an Envision plate reader […]. Relative IC50 values were calculated by fitting a dose-response curve using Graphpad PRISM software.
(§4) The gastric cancer cell proliferation inhibitory activities of the Example compounds measured by the method described above were evaluated according to the following criteria, and the results are presented in Table 20.

MIA-PaCa2-Control = experiment: Pancreatic cancer cell proliferation inhibitory activity, MIA-PaCa2-Control; settings: 72 hours, Cell Counting Kit-8, relative IC50
Experimental: as §1, §2

HT29 cells = experiment: Colorectal cancer cell proliferation inhibitory activity, HT29; settings: Homo sapiens, HT-29; 72 hours, Cell Counting Kit-8, relative IC50
Experimental: as §3, with “seven” for “six”, “colorectal” for “gastric”, “DLD-1, LoVo, SW620, SW480, HCT116, HCT15,” for “NCI-N87, SNU601, KATO-III, MKN1,”, “HT29” for “AGS”, “RPMI1640” for “RPMI1640 medium containing 10 % FBS and 1 % PS, followed by incubation in a cell incubator at 37 °C and 5 % CO2. HS746T cells were dispensed into a 96-well plate at 100 µL of cell suspension per well using DMEM”
(§5) The colorectal cancer cell proliferation inhibitory activities of the Example compounds measured by the method described above were evaluated according to the following criteria, and the results are presented in Table 19.

SNU601 = experiment: Gastric cancer cell proliferation inhibitory activity (Cell Counting Kit-8), SNU601; settings: SNU-601; 72 hours, Cell Counting Kit-8, relative IC50
Experimental: as §3, §4

A427 cells = experiment: Lung cancer cell proliferation inhibitory activity, A427; settings: Homo sapiens, A-427; 72 hours, Cell Counting Kit-8, relative IC50
Experimental: Experiments were performed using three types of lung cancer cell lines to measure the cell proliferation inhibitory ability of the compounds of the present invention. NCI-H23 and NCI-H358 cells were dispensed into a 96-well plate at 100 µL of cell suspension per well using RPM11640 medium containing 10 % FBS and 1 % PS, followed by incubation in a cell incubator at 37 °C and 5 % CO2. A427 cells were dispensed into a 96-well plate at 100 µL of cell suspension per well using DMEM medium containing 10 % FBS and 1 % PS, followed by incubation in a cell incubator at 37 °C and 5 % CO2. The next day, each Example compound (such as Example 8) dissolved and diluted in DMSO across 10 concentration ranges and a DMSO control group were treated on the cells for 72 hours. After completion of the compound treatment, 10 µL of Cell Counting Kit-8 (Dojindo) reagent was added to each well of the 96-well plate, followed by incubation for 2 hours. After inserting the 96-well plate into an Envision plate reader […], luminescence signals were measured. Relative IC50 values were calculated by fitting a dose-response curve using Graphpad PRISM software.
The lung cancer cell proliferation inhibitory activities of the Example compounds measured by the method described above were evaluated according to the following criteria, and the results are presented in Table 17.

LoVo = experiment: Colorectal cancer cell proliferation inhibitory activity, LoVo; settings: Homo sapiens, 72 hours, Cell Counting Kit-8, relative IC50
Experimental: as §3, with “seven” for “six”, “colorectal” for “gastric”, “DLD-1, LoVo, SW620, SW480, HCT116, HCT15,” for “NCI-N87, SNU601, KATO-III, MKN1,”, “HT29” for “AGS”, “RPMI1640” for “RPMI1640 medium containing 10 % FBS and 1 % PS, followed by incubation in a cell incubator at 37 °C and 5 % CO2. HS746T cells were dispensed into a 96-well plate at 100 µL of cell suspension per well using DMEM”
as §5

HS746T cells = experiment: Gastric cancer cell proliferation inhibitory activity (Cell Counting Kit-8), HS746T; settings: Homo sapiens, 72 hours, Cell Counting Kit-8, relative IC50
Experimental: as §3, §4

KATO-III = experiment: Gastric cancer cell proliferation inhibitory activity (Cell Counting Kit-8), KATO-III; settings: Homo sapiens, 72 hours, Cell Counting Kit-8, relative IC50
Experimental: as §3, §4

Measured: IC50

CN1CCN(c2cc(NCc3nc4ccc(F)c(F)c4[nH]3)c3ncc(C(F)(F)F)n3n2)CC1 [Example 8, N-((6,7-difluoro-1H-benzo[d]imidazol-2-yl)methyl)-6-(4-methylpiperazin-1-yl)-3-(trifluoromethyl)imidazo[1,2-b]pyridazin-8-amine]
≤ 200 nM: all assays above
